pKi: −log10 of the molar value.
Each molecule was assayed against Plk1 (Homo sapiens, UniProt P53350) (assay: biochemical).
Plk1, sequence (P53350 20-338): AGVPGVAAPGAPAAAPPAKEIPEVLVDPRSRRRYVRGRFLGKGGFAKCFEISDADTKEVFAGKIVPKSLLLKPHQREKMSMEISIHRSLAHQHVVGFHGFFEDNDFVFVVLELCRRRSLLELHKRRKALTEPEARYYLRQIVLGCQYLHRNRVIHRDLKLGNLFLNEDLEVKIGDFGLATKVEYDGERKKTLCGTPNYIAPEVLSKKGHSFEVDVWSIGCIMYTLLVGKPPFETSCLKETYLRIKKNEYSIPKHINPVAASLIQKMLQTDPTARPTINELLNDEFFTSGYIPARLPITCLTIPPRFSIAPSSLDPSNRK

CN1C(=O)C(C)(C)CN(C2CCCC2)c2nc(Nc3cccc4[nH]ncc34)ncc21 [Compound I-81, 2-(1H-indazol-4-ylamino)-9-cyclopentyl-8,9-dihydro-5,7,7-trimethyl-5H-pyrimido[4,5-b][1,4]diazepin-6(7H)-one] and CN1C(=O)C(C)(C)CN(C2CCCC2)c2nc(Nc3cccc(N)c3)ncc21 [Compound I-116, 2-(3-aminophenylamino)-9-cyclopentyl-8,9-dihydro-5,7,7-trimethyl-5H-pyrimido[4,5-b][1,4]diazepin-6(7H)-one] fall in the same range of pKi: 7.00 to 8.00 for the first, 7.00 to 8.00 for the second.

Compared with COc1cc(C(=O)NCC(O)C(F)(F)F)ccc1Nc1ncc2c(n1)N(C1CCCC1)CC(C)(C)C(=O)N2C (stereo not drawn) [Compound I-278, 4-(9-cyclopentyl-5,7,7-trimethyl-6-oxo-6,7,8,9-tetrahydro-5H-pyrimido[4,5-b][1,4]diazepin-2-ylamino)-3-methoxy-N-(3,3,3-trifluoro-2-hydroxypropyl)benzamide], COc1cc(C(=O)O)ccc1Nc1ncc2c(n1)N(C1CCCC1)CC(C)(C)C(=O)N2C [Compound I-120, 4-(9-cyclopentyl-6,7,8,9-tetrahydro-5,7,7-trimethyl-6-oxo-5H-pyrimido[4,5-b][1,4]diazepin-2-ylamino)-3-methoxybenzoic acid] is lower in pKi: > 8.00 for the first, 7.00 to 8.00 for the second.

COc1cc(C(=O)NC2CCN(C(=O)OC(C)(C)C)CC2)ccc1Nc1ncc2c(n1)N(C1CCCC1)CC(C)(C)C(=O)N2C [Compound I-95] and COC[C@H](C)NC(=O)c1ccc(Nc2ncc3c(n2)N(C2CCCC2)CC(C)(C)C(=O)N3C)c(OC)c1 [Compound I-217, (S)-4-(9-cyclopentyl-5,7,7-trimethyl-6-oxo-6,7,8,9-tetrahydro-5H-pyrimido[4,5-b][1,4]diazepin-2-ylamino)-3-methoxy-N-(1-methoxypropan-2-yl)benzamide] cannot be ordered by pKi: > 8.00 for the first, > 8.00 for the second.

CN1C(=O)C(C)(C)CN(C2CCCC2)c2nc(Nc3ccc(NC(=O)C(F)(F)F)cc3)ncc21 [Compound I-78, N-(4-(9-cyclopentyl-6,7,8,9-tetrahydro-5,7,7-trimethyl-6-oxo-5H-pyrimido[4,5-b][1,4]diazepin-2-ylamino)phenyl)-2,2,2-trifluoroacetamide] and CC(=O)Nc1cccc(Nc2ncc3c(n2)N(C2CCCC2)CC(C)(C)C(=O)N3C)c1 [Compound I-111, N-(3-(9-cyclopentyl-6,7,8,9-tetrahydro-5,7,7-trimethyl-6-oxo-5H-pyrimido[4,5-b][1,4]diazepin-2-ylamino)phenyl)acetamide] fall in the same range of pKi: 7.00 to 8.00 for the first, 7.00 to 8.00 for the second.

First: CNC(=O)c1ccc(Nc2ncc3c(n2)N(C2CC2)CC(C)(C)C(=O)N3C)c(OC)c1 [Compound I-30, 4-(9-cyclopropyl-6,7,8,9-tetrahydro-5,7,7-trimethyl-6-oxo-5H-pyrimido[4,5-b][1,4]diazepin-2-ylamino)-3-methoxy-N-methylbenzamide]
Second: COc1cc(C(=O)NCC2CC2(F)F)ccc1Nc1ncc2c(n1)N(C1CCCC1)CC(C)(C)C(=O)N2C (stereo not drawn) [Compound I-245, 4-(9-cyclopentyl-5,7,7-trimethyl-6-oxo-6,7,8,9-tetrahydro-5H-pyrimido[4,5-b][1,4]diazepin-2-ylamino)-N-((2,2-difluorocyclopropyl)methyl)-3-methoxybenzamide]
The pKi of the first is lower: 7.00 to 8.00 for the first, > 8.00 for the second.

COc1cc(C(=O)Nc2ccccn2)ccc1Nc1ncc2c(n1)N(C1CCCC1)CC(C)(C)C(=O)N2C [Compound I-221, 4-(9-cyclopentyl-5,7,7-trimethyl-6-oxo-6,7,8,9-tetrahydro-5H-pyrimido[4,5-b][1,4]diazepin-2-ylamino)-3-methoxy-N-(pyridin-2-yl)benzamide] and CNC(=O)c1ccc(Nc2ncc3c(n2)N(C2CCCC2)CCC(=O)N3C)c(OC)c1 [Compound I-9, 4-(9-cyclopentyl-6,7,8,9-tetrahydro-5-methyl-6-oxo-5H-pyrimido[4,5-b][1,4]diazepin-2-ylamino)-3-methoxy-N-methylbenzamide] cannot be ordered by pKi: > 8.00 for the first, > 8.00 for the second.
